In brackets after ≈: the same amount, converted by molar mass.
Experiments:
bacteria = details: background statement on the byproduct; cited from earlier work
Bac. sub. 1 = assay: MIC, serial dilution on BHI agar (inocula replicating device); format: cell-based; details: 18 hrs. at 37° C., read-out: Minimum Inhibitory Concentration (MIC)
Procedure: (§1) The procedure which is followed is the one recommended by the International Collaborative Study on Antibiotic Sensitivity Testing [Ericcson and Sherris, Acta. Pathologica et Microbiologia Scandinav, Supp. 217, Sections A and B: 64-68 (1971)], and employs brain heart infusion (BHI) agar and the inocula replicating device. Overnight growth tubes are diluted 100 fold for use as the standard inoculum (20,000-10,000 cells in approximately 0.002 ml. are placed on the agar surface; 20 ml. of BHI agar/dish). Twelve 2 fold dilutions of the test compound are employed, with initial concentration of the test drug being 200 mcg./ml. Single colonies are disregarded when reading plates after 18 hrs. at 37° C. The susceptibility (MIC) of the test organism is accepted as the lowest concentration of compound capable of producing complete inhibition of growth as judged by the naked eye. A comparison of the activity of 3"-epioleandomycin-Y 3",4"-carbonate and 4"-epioleandomycin-Y 3",4"-carbonate with that of parent oleandomycin-Y is recorded in the Table.

Strep. faec. 6 = assay: as above; format: cell-based; details: 18 hrs. at 37° C., read-out: Minimum Inhibitory Concentration (MIC)
Procedure: as §1

Staph. epi. 111 = assay: as above; format: cell-based; details: 18 hrs. at 37° C., read-out: Minimum Inhibitory Concentration (MIC)
Procedure: as §1

Staph. aur. 400 = assay: as above; format: cell-based; details: 18 hrs. at 37° C., read-out: Minimum Inhibitory Concentration (MIC)
Procedure: as §1

Strep. pyog. 203 = assay: as above; format: cell-based; details: 18 hrs. at 37° C., read-out: Minimum Inhibitory Concentration (MIC)
Procedure: as §1

Strep. pneum. 2 = assay: as above; format: cell-based; details: 18 hrs. at 37° C., read-out: Minimum Inhibitory Concentration (MIC)
Procedure: as §1

Staph. aur. 52 = assay: as above; format: cell-based; details: 18 hrs. at 37° C., read-out: Minimum Inhibitory Concentration (MIC)
Procedure: as §1

Staph. aur. 5 = assay: as above; format: cell-based; details: 18 hrs. at 37° C., read-out: Minimum Inhibitory Concentration (MIC)
Procedure: as §1

Past. mult. = assay: as above; format: cell-based; details: 18 hrs. at 37° C., read-out: Minimum Inhibitory Concentration (MIC)
Procedure: as §1

Row | SMILES | antibacterial activity (in words) (bacteria) | MIC (Bac. sub. 1) [µg/mL] | MIC (Strep. faec. 6) [µg/mL] | MIC (Staph. epi. 111) [µg/mL] | MIC (Staph. aur. 400) [µg/mL] | MIC (Strep. pyog. 203) [µg/mL] | MIC (Strep. pneum. 2) [µg/mL] | MIC (Staph. aur. 52) [µg/mL] | MIC (Staph. aur. 5) [µg/mL] | MIC (Past. mult.) [µg/mL]
1 | C[C@@H]1[C@@H](O[C@@H]2O[C@H](C)C[C@H](N(C)C)[C@H]2O)[C@@H](C)C[C@@]2(CO2)C(=O)[C@H](C)[C@@H](O)[C@@H](C)[C@@H](C)OC(=O)[C@H](C)[C@H]1O[C@H]1C[C@H](O)[C@@H](O)[C@H](C)O1 [I, O-demethyloleandomycin] | relatively low antibacterial activity | 6.25 (≈ 9.28 µM) | 6.25 (≈ 9.28 µM) | 6.25 (≈ 9.28 µM) | 12.5 (≈ 18.6 µM) | 1.56 (≈ 2.32 µM) | 0.78 (≈ 1.16 µM) | 50 (≈ 74.2 µM) | 50 (≈ 74.2 µM) | –
2 | C[C@@H]1[C@@H](O[C@@H]2O[C@H](C)C[C@H](N(C)C)[C@H]2O)[C@@H](C)C[C@@]2(CO2)C(=O)[C@H](C)[C@@H](O)[C@@H](C)[C@@H](C)OC(=O)[C@H](C)[C@H]1O[C@H]1C[C@H]2OC(=O)O[C@H]2[C@H](C)O1 [IIa, 3"-epioleandomycin-Y 3",4"-carbonate] | – | 0.78 (≈ 1.11 µM) | 3.12 (≈ 4.46 µM) | 1.56 (≈ 2.23 µM) | 6.25 (≈ 8.93 µM) | 3.12 (≈ 4.46 µM) | 0.39 (≈ 0.557 µM) | 3.12 (≈ 4.46 µM) | 3.12 (≈ 4.46 µM) | 50 (≈ 71.4 µM)
3 | C[C@@H]1[C@@H](O[C@@H]2O[C@H](C)C[C@H](N(C)C)[C@H]2O)[C@@H](C)C[C@@]2(CO2)C(=O)[C@H](C)[C@@H](O)[C@@H](C)[C@@H](C)OC(=O)[C@H](C)[C@H]1O[C@H]1C[C@@H]2OC(=O)O[C@@H]2[C@H](C)O1 [IIb, 4"-epioleandomycin-Y 3",4"-carbonate] | – | 3.12 (≈ 4.46 µM) | 12.5 (≈ 17.9 µM) | 6.25 (≈ 8.93 µM) | 12.5 (≈ 17.9 µM) | 3.12 (≈ 4.46 µM) | 0.78 (≈ 1.11 µM) | 12.5 (≈ 17.9 µM) | 12.5 (≈ 17.9 µM) | –
